32 molecules from ChEMBL document CHEMBL1177664, “Development of tryptase inhibitors derived from thalidomide” (Bioorg Med Chem, 2010) can be followed below.

The nature of experiment [1]: (§1) Inhibition of human tryptase-beta after 5 mins by fluorimetric analysis.
The species named for experiment [2] is Homo sapiens. The description is as §1.
The species named for experiment [3] is Homo sapiens. Briefly: Competitive inhibition of human tryptase-beta by Lineweaver-Burke plot analysis.
Experiment [4] in a line: Binding affinity to human tryptase-beta after 3 mins.
The target in another experiment is Prothrombin (Bos taurus, UniProt P00735). Briefly: Binding affinity to bovine thrombin after 3 mins.
Experiment [5] can be described thus: Binding affinity to bovine type 1 trypsin after 3 mins. More on the design: species or system Bos taurus.
The species entered for experiment [6] is Homo sapiens. Briefly: Inhibition of human tryptase-beta at 30 uM after 5 mins by fluorimetric analysis.

Active and inactive are the calls of the source. No cut-off for these calls is given here.

A word on the IC50: it is the concentration needed to halve the response being measured. Low values mean higher potency, high ones lower potency. The molecule `Nc1ccc(CCC(=O)Oc2ccc3c(c2)C(=O)N(c2ccc(F)cc2)C3=O)cc1` had an IC50 in experiment [1] of 1700 nM. That is a single-digit micromolar value.

As a reminder, the inhibition is how much of the control response was suppressed. A word on the Ki: it is a measure of affinity in units of concentration, obtained from inhibition or displacement. Higher therefore signals a looser hold on the target. `N#Cc1ccc(N2C(=O)c3ccc(OC(=O)CCc4ccc(N)nc4)cc3C2=O)cc1` returned an IC50 in experiment [1] of 78 nM. Besides, the inhibition entry in the experiment listed under Homo sapiens [2] is “Dose-dependent effect”. Also, in the experiment listed under Homo sapiens [3], the inhibition entry is “Active”. Also, the Ki in experiment [4] worked out at 44 nM; at Prothrombin, 16000 nM; in experiment [5], 880 nM.

In the case of `COc1ccc(CCC(=O)Oc2ccc3c(c2)C(=O)N(C)C3=O)cc1`, the inhibition entry in the experiment listed under Homo sapiens [6] was “inactive”.

Turning to `Nc1ccc(CCC(=O)Oc2ccccc2)cc1`, in the experiment listed under Homo sapiens [6], the inhibition result was “inactive”.

`N#Cc1ccc(N2C(=O)c3ccc(OC(=O)CCc4ccc(N)cc4)cc3C2=O)cc1`: the IC50 in experiment [1] stood at 340 nM. For the same molecule, the inhibition entry in the experiment listed under Homo sapiens [3] is “Active”. In addition, the Ki in experiment [4] turned out to be 190 nM; at Prothrombin, 8600 nM; in experiment [5], 4300 nM.

For the molecule `CC(C)(C)c1ccc(N2C(=O)c3ccc(OC(=O)CCc4ccc(N)cc4)cc3C2=O)cc1`, the inhibition entry in the experiment filed under Homo sapiens [6] was “inactive”.

As for `COc1ccc(N2C(=O)c3ccc(OC(=O)CCc4ccc(N)cc4)cc3C2=O)cc1`, the IC50 in experiment [1] worked out at 390 nM.

In experiment [1], `CCCCCCN1C(=O)c2ccc(OC(=O)CCc3ccc(N)cc3)cc2C1=O` returned an IC50 of 1500 nM.

In the case of `CN1C(=O)c2ccc(OC(=O)CCc3ccccc3)cc2C1=O`, the inhibition entry in the experiment filed under Homo sapiens [6] is “inactive”.

Regarding `CN1C(=O)c2ccc(OC(=O)Cc3cccc(N)c3)cc2C1=O`, the inhibition in the experiment filed under Homo sapiens [6] amounted to 46%.

As to `CN1C(=O)c2ccc(OC(=O)CCc3ccc(N(C)C)cc3)cc2C1=O`, the inhibition entry in the experiment listed under Homo sapiens [6] was “inactive”.

On to `Cc1ccc(N2C(=O)c3ccc(OC(=O)CCc4ccc(N)cc4)cc3C2=O)cc1`, for which half-maximal inhibition in experiment [1] (IC50) required 1200 nM.

Take `CN1C(=O)c2ccc(OC(=O)CCc3cccc(N)c3)cc2C1=O`: the inhibition entry in the experiment filed under Homo sapiens [6] is “inactive”.

`COc1cc(CCC(=O)Oc2ccc3c(c2)C(=O)N(C)C3=O)ccc1N`: in experiment [1], the IC50 is > 30000 nM.

As to `Nc1ccc(CCC(=O)Oc2ccc3c(c2)C(=O)N(c2ccc(N)cc2)C3=O)cc1`, the IC50 in experiment [1] came to 820 nM.

For `COc1cccc(N2C(=O)c3ccc(OC(=O)CCc4ccc(N)cc4)cc3C2=O)c1`, the IC50 in experiment [1] came out at 650 nM.

As to `CN1C(=O)c2ccc(OC(=O)c3cccc(N)c3)cc2C1=O`, the inhibition result in the experiment filed under Homo sapiens [6] is “inactive”.

`CCCN1C(=O)c2ccc(OC(=O)CCc3ccc(N)cc3)cc2C1=O`: it took 1200 nM to reach half-maximal inhibition in experiment [1] (IC50).

Regarding `CN1C(=O)c2ccc(OC(=O)CCCc3ccc(N)cc3)cc2C1=O`, the inhibition entry in the experiment listed under Homo sapiens [6] was “inactive”.

With `CC(C)N1C(=O)c2ccc(OC(=O)CCc3ccc(N)cc3)cc2C1=O`, it took 1200 nM to reach half-maximal inhibition in experiment [1] (IC50).

`CN1C(=O)c2ccc(OC(=O)CCc3ccc(N)nc3)cc2C1=O` registered an IC50 in experiment [1] of 400 nM. In addition, the inhibition result in the experiment listed under Homo sapiens [3] was “Active”. The Ki came out at 340 nM in experiment [4], 7000 nM at Prothrombin and 2900 nM in experiment [5].

`CN1C(=O)c2ccc(OC(=O)CCc3ccc(N)cc3)cc2C1=O` showed an inhibition in the experiment filed under Homo sapiens [6] of 98%. In experiment [1], this molecule gave an IC50 of 1500 nM. For the same molecule, the Ki in experiment [4] is 1700 nM; at Prothrombin, 15000 nM; in experiment [5], 13000 nM.

`COc1ccccc1N1C(=O)c2ccc(OC(=O)CCc3ccc(N)cc3)cc2C1=O` had an IC50 in experiment [1] of 1100 nM.

Turning to `Nc1ccc(CCC(=O)Oc2ccc3c(c2)C(=O)N(C2CCCCC2)C3=O)cc1`, the IC50 in experiment [1] worked out at 1200 nM.

Regarding `Nc1ccc(CCC(=O)Oc2ccc3c(c2)C(=O)N(c2ccc(C(F)(F)F)cc2)C3=O)cc1`, the inhibition result in the experiment listed under Homo sapiens [6] is “inactive”.

As to `CN1C(=O)c2ccc(OC(=O)Cc3ccc(N)cc3)cc2C1=O`, the inhibition result in the experiment filed under Homo sapiens [6] was “inactive”.

For `CN1C(=O)c2ccc(OC(=O)CCc3ccncc3)cc2C1=O`, the IC50 in experiment [1] was > 30000 nM.

Regarding `CN1C(=O)c2ccc(OC(=O)c3ccccc3N)cc2C1=O`, the inhibition entry in the experiment filed under Homo sapiens [6] was “inactive”. Further, half-maximal inhibition in experiment [1] (IC50) was put at 1500 nM.

`CN1C(=O)c2ccc(OC(=O)CCc3cnc(N)nc3)cc2C1=O` gave an IC50 in experiment [1] of 7800 nM. That is a single-digit micromolar value.

In experiment [1], `COc1cc(N)ccc1CCC(=O)Oc1ccc2c(c1)C(=O)N(C)C2=O` returned a concentration for half-maximal inhibition (IC50) of 1800 nM.

In experiment [1], `Nc1ccc(CCC(=O)Oc2ccc3c(c2)C(=O)N(c2ccccc2)C3=O)cc1` registered an IC50 of 1300 nM.

`CN1C(=O)c2ccc(OC(=O)c3ccc(N)cc3)cc2C1=O`: the inhibition entry in the experiment listed under Homo sapiens [6] was “inactive”.
